Test [1] concerns the target T1, HIV-1 protease (Q7S mutant form) (Human immunodeficiency virus type 1 group M subtype B, UniProt P04585, Q495S).
T1 construct: made in house
Nature of the test: HIV-1 Protease RET assay. The class given is biochemical. The note with it: Ave. Ki (nM), RET assay, Q7S enzyme, Morrison tight binding fit. The procedure, abridged:
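Ki values fitted with the Morrison tight-binding equation from steady-state RET cleavage (ex 340, em 490 nm) of 5 μM RE(EDANS)SQNYPIVQK(DABCYL)R. Buffer pH 4.8 acetate, 1M NaCl, 5 mM DTT, 1 mg/ml BSA, 10% DMSO; 2 nM Q7S mutant dimer, 37 °C, 12 min.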

In test [2] the test system is HIV-1 (HIV-1 RF, HIV-1 NL4-3) in CEM-SS / MT-2 cells. The test can be described thus: Cytopathic effect (CPE) inhibition assay (XTT/MTT dye reduction). It counts as cell-based. Put shortly: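 Readout is XTT reduction (A450, 4 h) after six days of culturing virus-infected (moi 0.025–0.819) or mock-infected CEM-SS/MT-2 cells, 2×10^4 per well, with half-log compound series. Antiviral EC50 and cytotoxic CC50 are relative to uninfected compound-free cells. Therapeutic index is CC50 divided by EC50.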

The subject of test [3] is HIV-1 NL4-3 or HIV-1 NL4-3(I84V/L90M). The test can be described thus: Susceptibility assay, p24 ELISA in infected MT-2 cells. The class given is cell-based. Conditions: Human immunodeficiency virus 1, NL43, MT2, read-out: EC50 or IC50 (mM), values without asterisk (EC50). The method, then:
T-cell lines, CEM-SS, and MT-2, and viruses HIV-1 RF and HIV-1 NL4-3 (pNL4-3) were obtained from the National Institutes of Health (AIDS Research and Reference Reagent Program, Bethesda, Md.).
Compounds were tested in phenotypic susceptibility assays at Virologic, Inc., (See Petropoulos C. J., Parkin N. T., Limoli K. L., Lie Y. S., Wrin T., Huang W., Tian H., Smith D., Winslow G. A., Capon D J, Whitcomb J M. 2000, “A novel phenotypic drug susceptibility assay for human immunodeficiency virus type 1,” Antimicrob Agents Chemother 44(4):920–928) or using the assay described here. MT-2 cells were infected with either HIV-1 NL4-3 or HIV-1 NL4-3([…]) and incubated in the presence of serial 0.5 log dilutions of test compounds. Three days later, culture supernatants were collected and virus production, as determined by p24 ELISA, was assayed. Percent inhibition was calculated as p24 concentration in compound-treated samples as compared to infected, compound-free controls. Inhibition of viral replication is determined by measuring reduction in HIV p24 present in the culture supernatant, using a Beckman-Coulter p24HIV-1 Ag EIA kit and following the supplied protocol. Absorbance is read on a MRX microplate reader (Dynex Technologies). The EC50 was calculated as the concentration of compound that effected a decrease in the p24 production by infected, compound-treated cells to 50% of that produced by infected, compound-free cells.
(In an ELISA, binding on a coated surface is turned into a signal by an enzyme label.)

The mark [4] stands for this setting: Human immunodeficiency virus 1, NL43, read-out: Ave CPE EC50 (mM).
The mark [5] stands for this setting: Human immunodeficiency virus 1, NL43, read-out: Ave CPE EC50.

Like-named read-outs stand apart in the source and are kept apart here. A value given as a limit tells only on which side of the number the result lay.

A word on the Ki: it is the dissociation constant of the complex between target and ligand, obtained from inhibition or displacement. What is called EC50 is the concentration needed to bring the measured effect to its halfway point. For the molecule `Cc1ccccc1CNC(=O)[C@@H]1CC(F)(F)CN1C(=O)[C@@H](O)[C@H](Cc1ccccc1)NC(=O)c1cccc(O)c1C` [Example C1, (S)-4,4-Difluoro-1-[(2S,3S)-2-hydroxy-3-(3-hydroxy-2-methyl-benzoylamino)-4-phenyl-butyryl]-pyrrolidine-2-carboxylic acid 2-methyl-benzylamide], in test [1], the Ki is 0.38 nM. Also, the half-maximal effective concentration (EC50) was 0.627 µM in test [2] (setting [4]) and 0.427 µM in test [3].
The corresponding values for `C/C=C(\C)CNC(=O)[C@@H]1CC(F)(F)CN1C(=O)[C@@H](O)[C@H](Cc1ccccc1)NC(=O)c1cccc(O)c1C` [Example C8, (S)-4,4-Difluoro-1-((2S,3S)-2-hydroxy-3-{[1-(3-hydroxy-2-methyl-phenyl)-methanoyl]-amino}-4-phenyl-butanoyl)-pyrrolidine-2-carboxylic acid ((E)-2-methyl-but-2-enyl)-amide] are 1.5 nM, 0.152 µM and 1.42 µM.
In test [1], `Cc1c(F)cccc1CNC(=O)[C@@H]1CC(F)(F)CN1C(=O)[C@@H](O)[C@H](Cc1ccccc1)NC(=O)c1cccc(O)c1C` [Example C5, (S)-4,4-Difluoro-1-((2S,3S)-2-hydroxy-3-{[1-(3-hydroxy-2-methyl-phenyl)-methanoyl]-amino}-4phenyl-butanoyl)-pyrrolidine-2-carboxylic acid 3-fluoro-2-methyl-benzylamide] returned a Ki of 0.6 nM. In addition, the concentration giving a half-maximal response (EC50) in test [2] (setting [5]) stood at 0.669 µM; in test [3] it was 1.61 µM.
The corresponding values for `Cc1c(O)cccc1C(=O)N[C@@H](Cc1ccccc1)[C@H](O)C(=O)N1CC(F)(F)C(C)(C)[C@H]1C(=O)NCc1ccc2c(c1)OCO2` [Example C26, (S)-4,4-Difluoro-1-[(2S,3S)-2-hydroxy-3-(3-hydroxy-2-methyl-benzoylamino)-4-phenyl-butyryl]-3,3-dimethyl-pyrrolidine-2-carboxylic acid (1,3-benzodioxol-5-ylmethyl)-amide] are < 0.1 nM, 0.076 µM and 0.131 µM.
The corresponding values for `Cc1c(O)cccc1C(=O)N[C@@H](Cc1ccccc1)[C@H](O)C(=O)N1CSC2(CCCC2)[C@H]1C(=O)N[C@H]1CCc2ccccc21` [Example B83, (R)-3-((2S,3S)-2-Hydroxy-3-{[1-(3-hydroxy-2-methyl-phenyl)-methanoyl]-amino}-4-phenyl-butanoyl)-1-thia-3-aza-spiro[4.4]nonane-4-carboxylic acid (S)-indan-1-ylamide] are < 0.1 nM, 0.009 µM and 0.202 µM.
The corresponding values for `Cc1c(O)cccc1C(=O)N[C@@H](Cc1ccccc1)[C@H](O)C(=O)N1CSC(C)(C)[C@H]1C(=O)NCC1=CCCC1` [Example A39, (R)-3-((2S,3S)-2-Hydroxy-3-{[1-(3-hydroxy-2-methyl-phenyl)-methanoyl]-amino}-4-phenyl-butanoyl)-5,5-dimethyl-thiazolidine-4-carboxylic acid (cyclopent-1-enylmethyl)-amide] are < 0.1 nM, 0.123 µM and 0.213 µM.
With `Cc1occc1CNC(=O)[C@H]1N(C(=O)[C@@H](O)[C@H](Cc2ccccc2)NC(=O)c2cccc(O)c2C)CSC1(C)C` [Example A53, (R)-3-((2S,3S)-2-Hydroxy-3-{[1-(3-hydroxy-2-methyl-phenyl)-methanoyl]-amino}-4-phenyl-butanoyl)-5,5-dimethyl-thiazolidine-4-carboxylic acid (2-methyl-furan-3-ylmethyl)-amide], the Ki in test [1] was < 0.1 nM. The concentration giving a half-maximal response (EC50) in test [2] (setting [5]) stood at 0.028 µM; in test [3], 0.07 µM.
The corresponding values for `Cc1c(O)cccc1C(=O)N[C@@H](Cc1ccccc1)[C@H](O)C(=O)N1CC(F)(F)C(C)(C)[C@H]1C(=O)NCc1cccs1` [Example C22, (S)-4,4-Difluoro-1-[(2S,3S)-2-hydroxy-3-(3-hydroxy-2-methyl-benzoylamino)-4-phenyl-butyryl]-3,3-dimethyl-pyrrolidine-2-carboxylic acid (thiophen-2-ylmethyl)-amide] are < 0.1 nM, 0.015 µM and 0.062 µM.
The like results for `Cc1ccccc1CNC(=O)[C@H]1N(C(=O)[C@@H](O)[C@H](Cc2ccccc2)NC(=O)c2cccc(O)c2C)CSC12CCC2` [Example C32, 7-(2-Hydroxy-3-{[1-(3-hydroxy-2-methyl-phenyl)-methanoyl]-amino}-4-phenyl-butanoyl)-5-thia-7-aza-spiro[3.4]octane-8-carboxylic acid-2-methyl benzylamide] were, in that order, < 0.1 nM, 0.009 µM and 0.19 µM.
The corresponding values for `CCCNC(=O)[C@H]1N(C(=O)[C@@H](O)[C@H](Cc2ccccc2)NC(=O)c2cccc(O)c2C)CSC12CCC2` [Example C38, (R)-7-((2S,3S)-2-Hydroxy-3-{[1-(3-hydroxy-2-methyl-phenyl)-methanoyl]-amino}-4-phenyl-butanoyl)-5-thia-7-aza-spiro[3.4]octane-8-carboxylic acid propylamide] are < 0.1 nM, 0.042 µM and 1.31 µM.
On to `C=CCCC(=O)[C@H]1N(C(=O)[C@@H](O)[C@H](Cc2ccccc2)NC(=O)c2cccc(O)c2C)CSC1(C)C` [Example D1, N-[(1S,2S)-1-Benzyl-3-((R)-5,5-dimethyl-4-pent-4-enoyl-thiazolidin-3-yl)-2-hydroxy-3-oxo-propyl]-3-hydroxy-2-methyl-benzamide], for which the inhibition constant (Ki) in test [1] is < 0.1 nM. Also, the EC50 was 0.052 µM in test [2] (setting [4]) and 0.601 µM in test [3].
The molecule `Cc1c(O)cccc1C(=O)N[C@@H](Cc1ccccc1)[C@H](O)C(=O)N1COC(C)(C)[C@H]1C(=O)N[C@H]1CCc2ccccc21` [Example C27, (S)-3-((2S,3S)-2-Hydroxy-3-{[1-(3-hydroxy-2-methyl-phenyl)-methanoyl]-amino}-4-phenyl-butanoyl)-5,5-dimethyl-oxazolidine-4-carboxylic acid (S)-indan-1-ylamide] showed an inhibition constant Ki in test [1] of 0.13 nM. The EC50 worked out at 0.115 µM in test [2] (setting [5]) and 0.189 µM in test [3].
The corresponding values for `Cc1c(O)cccc1C(=O)N[C@@H](Cc1ccccc1)[C@H](O)C(=O)N1CSC(C)(C)[C@H]1C(=O)NCc1ccsc1` [Example A40, (R)-3-((2S,3S)-2-Hydroxy-3-{[1-(3-hydroxy-2-methyl-phenyl)-methanoyl]-amino}-4-phenyl-butanoyl)-5,5-dimethyl-thiazolidine-4-carboxylic acid (thiophen-3-ylmethyl)-amide] are < 0.1 nM, 0.04 µM and 0.109 µM.
The corresponding values for `Cc1ccc(F)cc1CNC(=O)[C@@H]1CC(F)(F)CN1C(=O)[C@@H](O)[C@H](Cc1ccccc1)NC(=O)c1cccc(O)c1C` [Example C6, (S)-4,4-Difluoro-1-((2S,3S)-2-hydroxy-3-{[1-(3-hydroxy-2-methyl-phenyl)-methanoyl]-amino}-4-phenyl-butanoyl)-pyrrolidine-2-carboxylic acid 5-fluoro-2-methyl-benzylamide] are 2.4 nM, 0.744 µM and 1.94 µM.
The like results for `Cc1ccccc1CNC(=O)[C@H]1N(C(=O)[C@@H](O)[C@H](Cc2ccccc2)NC(=O)COc2c(Cl)cccc2Cl)CSC1(C)C` [Example B77, (R)-3-{(2S,3S)-3-[2-(2,6-Dichloro-phenoxy)-acetylamino]-2-hydroxy-4-phenyl-butyryl}-5,5-dimethyl-thiazolidine-4-carboxylic acid 2-methyl-benzylamide] were, in that order, < 0.1 nM, 0.143 µM and 1.63 µM.
For `CCCNC(=O)[C@H]1N(C(=O)[C@@H](O)[C@H](Cc2ccccc2)NC(=O)c2cccc(O)c2C)CC(F)(F)C1(C)C` [Example C19, (S)-4,4-Difluoro-1-((2S,3S)-2-hydroxy-3-{[1-(3-hydroxy-2-methyl-phenyl)-methanoyl]-amino}-4-phenyl-butanoyl)-3,3-dimethyl-pyrrolidine-2-carboxylic acid propylamide], the Ki in test [1] was < 0.1 nM. For the same molecule, the results for the concentration giving a half-maximal response (EC50) in test [2] (setting [5]) and in test [3] were 0.055 µM and 0.084 µM, respectively.

The values are drawn from patent US7094909B2, “HIV protease inhibitors, compositions containing the same, their pharmaceutical uses and materials for their synthesis” (priority 2001, dated 2006).
